The values below come from PubChem BioAssay AID1963854 (Molecular Pharmacology Branch, DTP, NCI, 2024).

This assay concerns 186277-243-T-J2-PDC complex spheroid viability. Briefly: Anticancer human tumor 186277-243-T-J2-PDC patient-derived colon adenocarcinoma cell line growth inhibition [POLQ]. The conditions noted are these: for viability, T/C: stronger effect = lower value. The method, then:
Multicellular complex tumor spheroid response to Polymerase (POL) inhibitors (novobiocin, ART-558, RP6685) in combination with a variety of drugs and investigational agents in selected tumor cell lines
The POL inhibitors (novobiocin, ART-558, and RP6685) were evaluated both individually and in combination with standard of care and investigational anticancer small molecules within a complex spheroid model of solid tumors. . Complex spheroids include a stromal component modeled by human endothelial cells (HUVEC) and fibroblasts modeled by human mesenchymal stem cells (MSCs). The concentration ranges selected for each drug and investigational agent were based upon clinically achievable concentrations if the clinical Cmax of the agent was known.
Compounds. The drugs and investigational agents: novobiocin (NSC847541), ART-558 (NSC835418), RP-6685 (NSC848927), peposertib (NSC802822), ceralasertib (NSC780249), elimusertib (NSC800525), camonsertib (NSC841442), AZD-1390 (NSC803789), olaparib (NSC753686), talazoparib (NSC767125), rucaparib (NSC756644), sotorasib (NSC818433), MRTX-1133 (NSC836407), SN-38 (NSC673596), topotecan (NSC609699), epotoside (NSC141540), doxorubicin (NSC123127), gemcitabine (NSC613327), 5-fluorouracil (NSC19893), paclitaxel (NSC125973), vemurafenib (NSC761431), MSA-2 (NSC828583), SN-011 (NSC837082), adavosertib (NSC754352), prexasertib (NSC758257), carboplatin (NSC241240) and oxaliplatin (NSC266046), were obtained from the National Cancer Institute (NCI) Developmental Therapeutics Program Chemical Repository (21). The FDA-approved anticancer drug set is available from the Developmental Therapeutics Program at https://dtp.cancer.gov/organization/dscb/obtaining/. […] The stock solutions were prepared in dimethyl sulfoxide (DMSO, Sigma-Aldrich, St. Louis, MO, cat. D2650), except for the platinum compounds which were prepared in saline (Quality Biological, Gaithersburg, MD, cat. 114-055-101), at 800-fold the tested concentration and stored at -70 degrees C prior to their use. All drugs and investigational agents were tested over a range starting from a high concentration at or near the clinical Cmax and decreasing in half-log increments. If the clinical Cmax for an agent had not been determined, the highest concentration tested was 10 microM, except for SN-38, which was tested at a high concentration of 1 microM.
Cell Culture. All cells were maintained in an incubator at 37 degrees C and 5% CO2 with 95% humidity. The PDC lines were cultured according to standard operating procedures established by the NCI PDMR (https://pdmr.cancer.gov). Table 3 of the manuscript, lists the cell lines along with the number of the three cell types plated to form the mct-spheroids and media for tumor cell growth. After thawing, all PDC lines, except 997537-175-T-J1-PDC and 415267-285-R-J2-PDC, were cultured in Matrigel-coated flasks prepared with a working solution of 1X Ham's F-12 nutrient mix, without supplementation (Thermo Fisher Scientific, cat. 11765054), 100 U/mL penicillin-streptomycin (Thermo Fisher Scientific, cat. 15140122), and 2.5% Matrigel (Corning Inc., Corning, NY, cat. 354248) for the first three passages. The two PDC lines 997537-175-T-J1-PDC and 415267-285-R-J2-PDC were cultured on uncoated flasks. The 857933-349-R-J2-PDC line was cultured in 6C/Colon 1B media containing advanced DMEM/F-12 (Thermo Fisher Scientific, cat. 12634028), 10 mM HEPES (Thermo Fisher Scientific, cat. 15630080), 1X GlutaMAX supplement (Thermo Fisher Scientific, cat. 35050061), 0.1 mg/mL primocin (InvivoGen, San Diego, CA, cat. ant-pm-2), 10% defined fetal bovine serum, heat inactivated (HyClone Laboratories Inc., Logan, UT, cat. SH30070.03HI), 50% L-WRN conditioned media (ATCC, cat. CRL-3276), 1.25 mM N-Acetyl-L-cysteine (Sigma-Aldrich, cat. A9165), 10 mM nicotinamide (Sigma-Aldrich, cat. N0636), 1X B-27 supplement (Thermo Fisher Scientific, cat. 17504044), 1X N-2 supplement (Thermo Fisher Scientific, cat. […]

[1] abbreviates: curve of first compound, second compound 0.0316 µM.
Where [2] appears, read: curve of first compound, second compound 0.1 µM.
Where [3] appears, read: curve of first compound, second compound 0.316 µM.
The mark [4] stands for this setting: curve of first compound, second compound 1 µM.
Where [5] appears, read: curve of first compound, second compound 3.16 µM.
Setting [6] is: curve of first compound, second compound 10 µM.
Setting [7] is: second compound 0.0316 µM, first compound 0.00316 µM.
Setting [8] is: second compound 0.0316 µM, first compound 0.01 µM.
Setting [9] is: second compound 0.0316 µM, first compound 0.0316 µM.
[10] abbreviates: second compound 0.0316 µM, first compound 0.1 µM.
The mark [11] stands for this setting: second compound 0.0316 µM, first compound 0.316 µM.
The mark [12] stands for this setting: second compound 0.0316 µM, first compound 1 µM.
Setting [13] is: second compound 0.1 µM, first compound 0.00316 µM.
Setting [14] is: second compound 0.1 µM, first compound 0.01 µM.
Setting [15] is: second compound 0.1 µM, first compound 0.0316 µM.
[16] abbreviates: second compound 0.1 µM, first compound 0.1 µM.
[17] abbreviates: second compound 0.1 µM, first compound 0.316 µM.
[18] abbreviates: second compound 0.1 µM, first compound 1 µM.
[19] abbreviates: second compound 0.316 µM, first compound 0.00316 µM.
The mark [20] stands for this setting: second compound 0.316 µM, first compound 0.01 µM.
The mark [21] stands for this setting: second compound 0.316 µM, first compound 0.0316 µM.
Where [22] appears, read: second compound 0.316 µM, first compound 0.1 µM.
[23] abbreviates: second compound 0.316 µM, first compound 0.316 µM.
[24] abbreviates: second compound 0.316 µM, first compound 1 µM.
[25] abbreviates: second compound 1 µM, first compound 0.00316 µM.
The mark [26] stands for this setting: second compound 1 µM, first compound 0.01 µM.
Where [27] appears, read: second compound 1 µM, first compound 0.0316 µM.
The mark [28] stands for this setting: second compound 1 µM, first compound 0.1 µM.
Setting [29] is: second compound 1 µM, first compound 0.316 µM.
The mark [30] stands for this setting: second compound 1 µM, first compound 1 µM.
Where [31] appears, read: second compound 3.16 µM, first compound 0.00316 µM.
[32] abbreviates: second compound 3.16 µM, first compound 0.01 µM.
The mark [33] stands for this setting: second compound 3.16 µM, first compound 0.0316 µM.
The mark [34] stands for this setting: second compound 3.16 µM, first compound 0.1 µM.
Where [35] appears, read: second compound 3.16 µM, first compound 0.316 µM.
Where [36] appears, read: second compound 3.16 µM, first compound 1 µM.
Where [37] appears, read: second compound 10 µM, first compound 0.00316 µM.
Setting [38] is: second compound 10 µM, first compound 0.01 µM.
The mark [39] stands for this setting: second compound 10 µM, first compound 0.0316 µM.
The mark [40] stands for this setting: second compound 10 µM, first compound 0.1 µM.
Setting [41] is: second compound 10 µM, first compound 0.316 µM.
[42] abbreviates: second compound 10 µM, first compound 1 µM.

Values joined by “and” are separate entries in the source; they are usually repeats but may differ in a detail not shown here. Identical values can stand only once. Some results are limits rather than exact numbers.
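Also: spheroids exposed to compounds for seven days.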
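For viability, T/C in this document: 100% = DMSO vehicle control viability.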

Turning to `CCc1c2c(nc3ccc(O)cc13)-c1cc3c(c(=O)n1C2)COC(=O)[C@]3(O)CC` + COC1C(OC(N)=O)C(O)C(Oc2ccc3c(O)c(NC(=O)c4ccc(O)c(CC=C(C)C)c4)c(=O)oc3c2C)OC1(C)C, the IC50 came to 6.67 nM under setting [1]; 6.31 nM under setting [2]; 6.22 nM under setting [3]; 5.81 nM under setting [4]; 4.06 nM under setting [5]; 4.2 nM under setting [6]. The viability, T/C is, setting by setting: under setting [7], 60.8%; under setting [8], 44.3%; under setting [9], 21.4%; under setting [10], 11.2%; under setting [11], 8.38%; under setting [12], 6.45%. The viability, T/C was 65% under setting [13]; 39.7% under setting [14]; 21.9% under setting [15]; 10.4% under setting [16]; 8.32% under setting [17]; 6.78% under setting [18]. The viability, T/C is, setting by setting: under setting [19], 61.1%; under setting [20], 42%; under setting [21], 22.4%; under setting [22], 10.3%; under setting [23], 7.76%; under setting [24], 6.8%. For the same molecule, the viability, T/C reads like this: under setting [25], 61.8%; under setting [26], 39.2%; under setting [27], 21.6%; under setting [28], 10.2%; under setting [29], 8.22%; under setting [30], 6.39%. Moreover, the viability, T/C is, setting by setting: under setting [31], 53.1%; under setting [32], 38.8%; under setting [33], 19.7%; under setting [34], 9.79%; under setting [35], 7.9%; under setting [36], 6.76%. Further, the viability, T/C was 52.9% under setting [37]; 41.4% under setting [38]; 19% under setting [39]; 8.88% under setting [40]; 8.76% under setting [41]; 6.74% under setting [42].
With `COc1cc2cc(C(=O)CCC(=O)O)sc2cc1OC`, the viability, T/C (compound 0.0316 µM) was 92.9% and 94% and 94.8%; the viability, T/C (compound 0.1 µM) was 92.5% and 101% and 99.4%; the viability, T/C (compound 0.316 µM) was 100% and 88% and 107%; the viability, T/C (compound 1 µM) was 111% and 86% and 87.3%; the viability, T/C (compound 3.16 µM) is 94.3% and 96.3% and 101%; the viability, T/C (compound 10 µM) was 94.8% and 95.2% and 101%. For the same molecule, the IC50 (curve of compound) is over 10000 nM.
Regarding `CNCc1ccc(-c2[nH]c3cc(F)cc4c3c2CCNC4=O)cc1`, the viability, T/C was 101% and 103% and 98.4% (compound 0.0316 µM); 108% and 122% and 93.3% (compound 0.1 µM); 99.6% and 100% and 106% (compound 0.316 µM); 97.1% and 93.2% and 108% (compound 1 µM); 116% and 115% and 119% (compound 3.16 µM); 93.5% and 116% and 103% (compound 10 µM). In addition, the concentration for half-maximal inhibition (IC50) (curve of compound) was over 10000 nM.
Consider `CCc1cc2c(N3CCc4c(cc(Cn5ccnc5)cc4-c4cn(C)nc4C(F)(F)F)C3=O)cc(C)nc2c(OC)n1`, for which the viability, T/C is 100% and 88.7% and 82.3% (compound 0.0316 µM); 110% and 93% and 96.3% (compound 0.1 µM); 101% and 96.8% and 86.6% (compound 0.316 µM); 104% and 106% and 86.8% (compound 1 µM); 86% and 109% and 103% (compound 3.16 µM); 76.3% and 99.6% and 88.1% (compound 10 µM). Further, where the note is “curve of compound”, the IC50 was over 10000 nM.
In the case of `CC[C@@]1(O)C(=O)OCc2c1cc1n(c2=O)Cc2cc3c(CN(C)C)c(O)ccc3nc2-1`, the viability, T/C (compound 0.000316 µM) was 96.6% and 87.7% and 89.5%; the viability, T/C (compound 0.001 µM) is 91.4% and 93.5% and 116%; the viability, T/C (compound 0.00316 µM) is 112% and 111% and 129%; the viability, T/C (compound 0.01 µM) was 119% and 125% and 112%; the viability, T/C (compound 0.0316 µM) was 71.8% and 125% and 61.7%; the viability, T/C (compound 0.1 µM) is 48.8% and 88.5% and 38.6%. Moreover, the IC50 (curve of compound) is 94.1 nM and > 100 nM and 56.7 nM.
For `COc1cccc(OCCCN)c1-c1cc(Nc2cnc(C#N)cn2)n[nH]1` + Cc1cccc(N(C)C(=O)C2C(O)CCN2c2nc(C)cc(C(F)(F)F)c2C#N)c1, the concentration for half-maximal inhibition (IC50) is, setting by setting: under setting [1], under 3.16 nM; under setting [2], under 3.16 nM; under setting [3], under 3.16 nM; under setting [4], under 3.16 nM; under setting [5], under 3.16 nM; under setting [6], under 3.16 nM. Besides, the viability, T/C reads like this: under setting [7], 38.4%; under setting [8], 14.9%; under setting [9], 11.1%; under setting [10], 10%; under setting [11], 9.49%; under setting [12], 10.2%. The viability, T/C is, setting by setting: under setting [13], 33.4%; under setting [14], 15.7%; under setting [15], 10.9%; under setting [16], 9.64%; under setting [17], 10.2%; under setting [18], 9.26%. Moreover, the viability, T/C runs as follows: under setting [19], 30.1%; under setting [20], 12%; under setting [21], 10.7%; under setting [22], 10.1%; under setting [23], 9.4%; under setting [24], 8.53%. The viability, T/C by setting is: under setting [25], 30.9%; under setting [26], 11.5%; under setting [27], 9.4%; under setting [28], 9.54%; under setting [29], 9.34%; under setting [30], 9.69%. Besides, the viability, T/C was 34.2% under setting [31]; 11.5% under setting [32]; 9.08% under setting [33]; 9.36% under setting [34]; 9.81% under setting [35]; 9.01% under setting [36]. Besides, the viability, T/C was 17.9% under setting [37]; 9.92% under setting [38]; 8.74% under setting [39]; 8.3% under setting [40]; 9.78% under setting [41]; 9.02% under setting [42].
